Assay results reported in patent US9957325B2, “Synthetic antibody mimic peptides” (Formurex, Inc., priority 2015, dated 2018).
Where two headings read alike, the source gives them in different places. Blank lines part the entries; values can stand above or below the compound they belong to. Where a SMILES comes first, the peptide text is derived from it. The star is where a group is joined. X1 = CC[C@H](C)[C@@H]([C@@H](CC(=O)N1CCC[C@H]1[C@H](OC)[C@@H](C)C(=O)N[C@H](C)[C@@H](OC(=O)CCCCC(=NNC(=O)CCCCCN1C(=O)CC(*)C1=O)c1ccccc1)c1ccccc1)OC)N(C)C(=O)[C@@H](NC(=O)[C@H](C(C)C)N(C)C)C(C)C

How the values were obtained:
MDA-MB-468 cells [1] = assay: In vitro cytotoxicity, sulforhodamine B assay; assay type: cell-based; conditions: MDA-MB-468, 72 h, SRB
Method: (§1) Cells were cultured to 80% confluency in T75 culture flasks using Dulbecco's Modified Eagle's Medium (DMEM) as growth medium. The cell density was determined using a Coulter Counter. The cells were seeded onto 96 well plates and grown for 24 h. to 50% confluency. […] At the end of the incubation period, the cells were fixed using 10% trichloroacetic acid, followed by washing with distilled water and drying. The cellular proteins were stained using 50 μL of 0.4% sulforhodamine B (SRB) in 1% acetic acid. Unbound SRB was washed with 1% acetic acid and the plates were dried overnight. The cell-bound SRB was then solubilized using 200 μL of 10 mM unbuffered Tris base solution. SRB absorbance was measured at 560 nm wavelength using a Plate Reader. The percent viability of cells was plotted as a function of log concentration and data was analyzed in GraphPad Prism Version 5.0 software (GraphPad Software, Inc., California, USA) using a nonlinear-regression curve fit (variable slope four parameter equation).

HEK 293 cells = conditions: for IC50: HEK 293, 72 h, SRB
Method: as §1

A431 cells [2] = conditions: for IC50: A431, 72 h, SRB; for more potent than the drug alone: EGFR over-expressing cancer cells (A431, MDA-MB-468), vs auristatin E
Method: as §1

[3] = test system: MDA-MB-361, ZR-75-1 and HEK293 cells; assay: Confocal microscopy binding of FITC labeled HER2-PEPs; assay type: cell-based; conditions: 10 μM FITC labeled peptide, 15 minutes at 37° C.
Method: MDA-MB-361, ZR-75-1 and […] cells were grown in T75 flasks at 37° C. and 5% CO2. Upon reaching 80% confluency, the cells were counted and seeded onto coverslips placed inside 6-well culture plates at a density of 80,000 cells/well. The cells were allowed to attach for 24 hours before the experiment was performed. Upon attachment, the cells were washed twice with HBSS and serum free media.
Stock solutions of FITC labeled HER2-PEPs and control peptide were prepared with dimethyl sulfoxide (DMSO). Stock solutions were diluted with serum free media medium several times and less than 1% of DMSO was presented in the final solutions of all peptides (10 μM), which were added to the 6-well culture plates.
After incubating 15 minutes at 37° C., the medium was removed and the cells were washed twice with HBSS. The cells were then treated with a 2.5 μg/mL solution of Alexa fluor 594 wheat germ agglutinin in HBSS for 10 minutes to stain the cell plasma membrane. The dye solution was removed and cells were washed twice with HBSS. The cells were then fixed by performing a 15 minute treatment using 4% paraformaldehyde solution prepared in HBSS. The cells were washed with HBSS followed by a final wash of distilled water. […] The FITC fluorescence was visualized using 491 nm and the Alexa fluor 594 fluorescence was visualized using 561 nm wavelength filter.

[4] = target: T1, HER2 recombinant human protein (Homo sapiens, UniProt P04626); assay: Surface plasmon resonance on immobilized HER2; assay type: binding; conditions: SPR
T1 construct: purchased Life Technologies / Thermo Fisher Scientific Inc
Method: All experiments were carried out at 25° C. with a data collection rate of 2 Hz. The running method was created using the Autolink control software. PBS with 0.01% Tween 20 (pH7.4) buffers were filtered and thoroughly degassed before use. HER2 recombinant human protein was covalently attached to the left channel of a 500,000 Da carboxymethylated dextran sensor chip using EDC and NHS chemistries. Then, the chip was blocked by passing EA for 8 minutes at a rate of 10 μL/min. […] Triplicate determinations were done at each concentration. The bound surface was regenerated by sequential injections of 10 mM glycine in PBST (pH 2.5).
The sensorgrams from SPR were globally treated using Scrubber 2® software where all traces were zeroed, cropped, aligned, and referenced. Kinetic constants ka and kd were determined by global fitting analyses of the titration curves using the 1:1 Lagmurian interaction model taking into account the mass transport. The equilibrium dissociation constant (KD) was calculated from the kd/ka ratio.

[5] = Peptide-drug conjugate pH hydrolysis study; assay type: physicochemical
Method: Peptide-drug conjugate was evaluated for half-life determination at pH 5 and 7.4. For this, a 1 mg/mL concentration of PDC was incubated in ammonium bicarbonate buffers, pH 5 and 7.4. Degradation of PDC was evaluated by calculating the area under the curve after 0, 0.5, 1, 2, 4, 6 and 48 hours using HPLC with a gradient method, with TEAA buffer pH 7 and acetonitrile.

Recombinant human EGFR = Recombinant human EGFR (Homo sapiens, UniProt P00533); assay: Surface plasmon resonance on immobilized EGFR; conditions: SPR, EGFR as immobilized surface, 1:1 binding model, 25° C.
Method: Binding affinity constant of antibody mimics was calculated by surface plasmon resonance (Reichert SR7000DC). A carboxymethyl dextran gold sensor chip was activated by N-hydroxysuccinimide (NHS) and N-ethyl-N″-[3-([…])propyl] carbodiimide (EDC) at 25° C. using phosphate buffered saline pH 7.4 with 0.05% tween 20 as running buffer. […] Unreactive sites were blocked by flowing over the chip 1 M ethanolamine pH 8.5 at 10 μL/min for 8 minutes. […] The resulting sensograms were globally fitted using Scrubber2 software (BioLogic Software, Campbell, Australia) in a 1:1 binding model to determine the association rate (kon), dissociation rate (kd or koff), and dissociation constant KD.

[6] = test system: A431, MDA-MB-468 and HEK 293 cells; assay: Confocal binding/internalization of FITC labeled peptides; assay type: cell-based
Method: (§2) A431, MDA-MB-468 and HEK 293 cells were cultured in 75 cm^2 culture flasks in DMEM supplemented with 10% FBS. For binding/internalization studies, 5×10^5 cells were seeded in cover slips in 6 well culture plates overnight. After the medium was removed, the cells were washed with HBSS and then cells were treated with FITC labeled antibody mimic and scrambled (control) peptide in serum free DMEM for 30 minutes at 37° C. Cells were then washed with HBSS to remove any unbound peptides and incubated with AlexaFluor 594 wheat germ agglutinin to stain cell membranes. Cells were fixed with 4% paraformaldehyde and cover slips were mounted on slides which contain a drop of SlowFade®. Cells were then imaged with an inverted Leica DMIRE2 fluorescence microscope (Leica Biosystems Richmond Inc., Richmond, USA) using a Yokogawa CSUX1 confocal scanner unit. For flow cytometry studies, cells were washed with HBSS after incubation with antibody mimics, control peptide for 30 minutes, and dissociated using trypsin-EDTA. Cells were then centrifuged at 500 g for 5 min. Supernatant was removed and cell pellets were re-suspended in FACS solution. The cell suspension was then analyzed on a Beckman Coulter flow cytometer and data were analyzed using the Cell Questpro. A total of 10000 events were collected monitoring FITC.

MDA-MB-468 cells [7] = assay: Flow cytometry uptake of FITC labeled peptides; assay type: cell-based
Method: as §2

A431 cells [8] = assay: Flow cytometry uptake of FITC labeled peptides; assay type: cell-based
Method: as §2

Chain of Recombinant human EGFR (P00533 25-1210): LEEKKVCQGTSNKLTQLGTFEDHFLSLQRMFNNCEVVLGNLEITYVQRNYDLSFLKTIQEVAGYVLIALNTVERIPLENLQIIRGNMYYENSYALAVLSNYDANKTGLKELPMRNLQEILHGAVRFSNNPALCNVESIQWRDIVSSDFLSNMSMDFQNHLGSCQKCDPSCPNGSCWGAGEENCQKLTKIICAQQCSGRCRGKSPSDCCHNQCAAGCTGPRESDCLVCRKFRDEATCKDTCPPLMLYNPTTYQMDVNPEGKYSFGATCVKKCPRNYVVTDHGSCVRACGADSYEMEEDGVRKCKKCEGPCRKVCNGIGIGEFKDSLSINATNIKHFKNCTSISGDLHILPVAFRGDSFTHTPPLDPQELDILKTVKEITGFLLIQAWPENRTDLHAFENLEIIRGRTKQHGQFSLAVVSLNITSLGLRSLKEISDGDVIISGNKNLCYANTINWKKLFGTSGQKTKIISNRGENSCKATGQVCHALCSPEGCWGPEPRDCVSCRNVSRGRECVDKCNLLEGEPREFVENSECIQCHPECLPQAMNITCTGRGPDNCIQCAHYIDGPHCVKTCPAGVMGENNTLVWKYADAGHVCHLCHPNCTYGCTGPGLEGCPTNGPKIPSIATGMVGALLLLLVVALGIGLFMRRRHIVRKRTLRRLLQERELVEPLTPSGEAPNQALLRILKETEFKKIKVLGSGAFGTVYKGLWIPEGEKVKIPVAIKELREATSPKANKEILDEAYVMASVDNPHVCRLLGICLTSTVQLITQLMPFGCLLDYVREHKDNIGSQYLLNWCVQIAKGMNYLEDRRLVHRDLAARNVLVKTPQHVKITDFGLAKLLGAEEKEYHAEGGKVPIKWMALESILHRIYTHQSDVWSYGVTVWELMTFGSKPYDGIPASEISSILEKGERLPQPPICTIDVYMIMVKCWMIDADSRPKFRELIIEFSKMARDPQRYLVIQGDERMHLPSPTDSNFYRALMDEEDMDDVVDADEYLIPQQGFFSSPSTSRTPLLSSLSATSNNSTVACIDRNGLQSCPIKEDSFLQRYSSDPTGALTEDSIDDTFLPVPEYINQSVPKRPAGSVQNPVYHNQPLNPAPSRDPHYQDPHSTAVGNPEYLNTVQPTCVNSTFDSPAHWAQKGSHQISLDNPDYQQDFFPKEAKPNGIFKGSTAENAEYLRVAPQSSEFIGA
T1 sequence (P04626 23-1255): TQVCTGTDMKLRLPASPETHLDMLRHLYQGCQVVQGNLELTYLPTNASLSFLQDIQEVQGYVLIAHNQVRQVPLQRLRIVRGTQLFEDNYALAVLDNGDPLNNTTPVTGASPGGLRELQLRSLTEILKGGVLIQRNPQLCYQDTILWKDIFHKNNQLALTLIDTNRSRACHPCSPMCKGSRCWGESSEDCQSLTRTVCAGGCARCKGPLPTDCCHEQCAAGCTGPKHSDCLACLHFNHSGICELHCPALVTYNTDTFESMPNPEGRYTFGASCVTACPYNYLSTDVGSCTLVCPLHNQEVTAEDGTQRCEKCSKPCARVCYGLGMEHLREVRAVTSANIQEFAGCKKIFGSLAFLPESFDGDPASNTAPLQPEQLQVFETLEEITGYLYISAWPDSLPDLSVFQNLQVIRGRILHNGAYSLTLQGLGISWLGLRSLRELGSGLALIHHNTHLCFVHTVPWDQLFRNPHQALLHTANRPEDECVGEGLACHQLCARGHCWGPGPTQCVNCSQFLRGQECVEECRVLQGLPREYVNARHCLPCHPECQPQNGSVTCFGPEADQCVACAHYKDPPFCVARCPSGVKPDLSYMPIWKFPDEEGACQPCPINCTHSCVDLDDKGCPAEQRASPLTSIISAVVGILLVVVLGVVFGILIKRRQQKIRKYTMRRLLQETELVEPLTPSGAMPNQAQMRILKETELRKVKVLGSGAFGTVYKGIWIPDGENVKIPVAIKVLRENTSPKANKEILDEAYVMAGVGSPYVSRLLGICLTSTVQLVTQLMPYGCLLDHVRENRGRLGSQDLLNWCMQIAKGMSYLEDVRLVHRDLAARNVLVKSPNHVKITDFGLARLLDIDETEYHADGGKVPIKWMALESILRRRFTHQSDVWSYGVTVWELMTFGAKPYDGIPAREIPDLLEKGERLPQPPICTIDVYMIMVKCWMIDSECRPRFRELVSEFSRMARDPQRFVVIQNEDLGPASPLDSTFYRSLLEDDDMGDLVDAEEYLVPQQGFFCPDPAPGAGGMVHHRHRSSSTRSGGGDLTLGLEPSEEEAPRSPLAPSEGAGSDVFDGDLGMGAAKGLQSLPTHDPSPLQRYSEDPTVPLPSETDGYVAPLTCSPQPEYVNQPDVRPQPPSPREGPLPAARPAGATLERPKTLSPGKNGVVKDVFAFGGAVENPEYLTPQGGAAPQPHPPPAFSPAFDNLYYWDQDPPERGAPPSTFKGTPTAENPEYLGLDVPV

Compound: CC[C@H](C)[C@@H]([C@@H](CC(=O)N1CCC[C@H]1[C@H](OC)[C@@H](C)C(=O)N[C@H](C)[C@@H](O)c1ccccc1)OC)N(C)C(=O)[C@@H](NC(=O)[C@H](C(C)C)N(C)C)C(C)C [Auristatin E, reference compound]
IC50 (MDA-MB-468 cells [1]): 0.0117 nM | IC50 (HEK 293 cells): 0.0626 nM | IC50 (A431 cells [2]): 0.0246 nM

KD higher than that of HER2-PEP11 and HER2-PEP21 [4]: about 2000 fold | kd ([4]; HER2 immobilized, 1:1 model, 25° C.): 0.0181 s⁻¹ | kon ([4]; HER2 immobilized, 1:1 model, 25° C., read-out: ka): 131 M⁻¹ s⁻¹
Compound: CC(C)C[C@H](NC(=O)[C@H](Cc1ccccc1)NC(=O)CNC(=O)[C@H](C)NC(=O)[C@H](CC(=O)O)NC(=O)[C@H](CC(N)=O)NC(=O)[C@@H]1CCCN1C(=O)[C@H](Cc1ccc(O)cc1)NC(=O)CNC(=O)[C@H](CCC(N)=O)NC(=O)[C@@H]1CCCN1C(=O)[C@H](CO)NC(=O)[C@@H](N)[C@@H](C)O)C(=O)NCC(=O)N[C@@H](CCCNC(=N)N)C(=O)N[C@@H](CCC(=O)O)C(=O)N[C@@H](CO)C(=O)N[C@H](C(=O)N[C@@H](CC(N)=O)C(=O)O)[C@@H](C)O [HER2-Pep22] (H-TSPQGYPNDAGFLGRESTN-OH; N-terminus and C-terminus assumed)
binding to cells, confocal microscopy [3]: no binding to all the three cell lines

Compound: CC[C@H](C)[C@@H]([C@@H](CC(=O)N1CCC[C@H]1[C@H](OC)[C@@H](C)C(=O)N[C@H](C)[C@@H](OC(=O)CCCCC(=NNC(=O)CCCCCN1C(=O)CC(SC[C@H](NC(=O)[C@H](C)NC(=O)[C@H](CCC(=O)O)NC(=O)[C@H](Cc2ccc(O)cc2)NC(=O)[C@H](CC(=O)O)NC(=O)[C@H](Cc2ccc(O)cc2)NC(=O)[C@H](Cc2ccccc2)NC(=O)[C@@H](NC(=O)CNC(=O)[C@@H]2CCCN2C(=O)CNC(=O)[C@H](CC(N)=O)NC(=O)[C@H](CCC(=O)O)NC(=O)CNC(=O)[C@H](CO)NC(=O)[C@@H](N)Cc2c[nH]c3ccccc23)[C@@H](C)O)C(=O)O)C1=O)c1ccccc1)c1ccccc1)OC)N(C)C(=O)[C@@H](NC(=O)[C@H](C(C)C)N(C)C)C(C)C (some centres unmarked) [PDC] (H-WSGENGPGTFYDYEAC(X1)-OH; N-terminus and C-terminus assumed)
half-life at 1 mg/mL ([5]; pH 5, ammonium bicarbonate buffer): 2.8 h | half-life at 1 mg/mL ([5]; pH 7.4, ammonium bicarbonate buffer): > 48 h | potency lower than drug alone (HEK 293 cells; control cells (HEK 293), vs auristatin E): more than 100 fold | more potent than the drug alone (A431 cells [2]): approximately 10 fold | more potent than the drug alone (A431 cells [2]; listed as Peptide-drug conjugate): around 10 fold

koff (Recombinant human EGFR): 0.00581 s⁻¹ | kon (Recombinant human EGFR): 1210 M⁻¹ s⁻¹
Compound: C[C@H](NC(=O)[C@H](CCC(=O)O)NC(=O)[C@H](Cc1ccc(O)cc1)NC(=O)[C@H](CC(=O)O)NC(=O)[C@H](Cc1ccccc1)NC(=O)[C@H](Cc1ccc(O)cc1)NC(=O)CNC(=O)[C@@H]1CCCN1C(=O)CNC(=O)[C@H](CC(N)=O)NC(=O)[C@H](CCC(=O)O)NC(=O)CNC(=O)[C@H](CO)NC(=O)[C@@H](N)Cc1c[nH]c2ccccc12)C(=O)O [Pep6] (H-WSGENGPGYFDYEA-OH; N-terminus and C-terminus assumed)

Compound: C[C@H](NC(=O)[C@H](CCC(=O)O)NC(=O)[C@H](Cc1ccc(O)cc1)NC(=O)[C@H](CC(=O)O)NC(=O)[C@H](Cc1ccc(O)cc1)NC(=O)[C@H](Cc1ccccc1)NC(=O)CNC(=O)[C@@H]1CCCN1C(=O)CNC(=O)[C@H](CC(N)=O)NC(=O)[C@H](CCC(=O)O)NC(=O)CNC(=O)[C@H](CO)NC(=O)[C@@H](N)Cc1c[nH]c2ccccc12)C(=O)O [Pep11] (H-WSGENGPGFYDYEA-OH; N-terminus and C-terminus assumed)
Kd (Recombinant human EGFR): 252 nM | koff (Recombinant human EGFR): 0.0252 s⁻¹ | kon (Recombinant human EGFR): 100000 M⁻¹ s⁻¹ | IC50 (MDA-MB-468 cells [1]): 420 nM | binding to cells after cetuximab pre-incubation ([6]; EGFR blocked by cetuximab for 30 min, A431 and MDA-MB-468): inhibited/decreased | IC50 (HEK 293 cells): 1040 nM | lower potency towards control cells compared to cancer cells (HEK 293 cells; HEK 293 vs cells that over-express EGFR): 2- to 3 fold | IC50 (A431 cells [2]): 388 nM

koff (Recombinant human EGFR): 0.0259 s⁻¹ | kon (Recombinant human EGFR): 43500 M⁻¹ s⁻¹
Compound: C[C@H](NC(=O)[C@H](CCC(=O)O)NC(=O)[C@H](Cc1ccc(O)cc1)NC(=O)[C@H](CC(=O)O)NC(=O)[C@H](Cc1ccc(O)cc1)NC(=O)[C@H](Cc1ccccc1)NC(=O)[C@@H](NC(=O)CNC(=O)[C@@H]1CCCN1C(=O)CNC(=O)[C@H](CC(N)=O)NC(=O)[C@H](CCC(=O)O)NC(=O)CNC(=O)[C@H](CO)NC(=O)[C@@H](N)Cc1c[nH]c2ccccc12)[C@@H](C)O)C(=O)O [Pep22] (H-WSGENGPGTFYDYEA-OH; N-terminus and C-terminus assumed)

koff (Recombinant human EGFR): 0.103 s⁻¹ | kon (Recombinant human EGFR): 14300 M⁻¹ s⁻¹
Compound: C[C@H](N)C(=O)N[C@@H](CCC(=O)O)C(=O)N[C@@H](Cc1ccc(O)cc1)C(=O)N[C@@H](CC(=O)O)C(=O)N[C@@H](Cc1ccccc1)C(=O)N[C@@H](Cc1ccc(O)cc1)C(=O)NCC(=O)N1CCC[C@H]1C(=O)NCC(=O)N[C@@H](CC(N)=O)C(=O)N[C@@H](CCC(=O)O)C(=O)NCC(=O)N[C@@H](CO)C(=O)N[C@@H](Cc1c[nH]c2ccccc12)C(=O)O [Pep24] (H-AEYDFYGPGNEGSW-OH; N-terminus and C-terminus assumed)

Compound: SGEWAYDGYEPNFG (Synthetic amino acid - Control) [Pep25, scrambled peptide, negative control]
binding to cells, confocal fluorescence ([6]; FITC labeled peptide, 30 minutes at 37° C.): negligible binding | binding to cancer cell line, flow cytometry (MDA-MB-468 cells [7]): negligible binding | binding to cancer cell line, flow cytometry (A431 cells [8]): negligible binding
